Tests used:
Format in all cases: nucleic-acid assay
Nucleic Acid [1] = test: In vitro association constant for binding at d(AAGAATTCTT)2 done in 50 mM Tris-HCL in pH 6.35 at room temperature
Nucleic Acid [2] = test: In vitro association constant for binding at d(TA AGAATTCTTA)2 done in 50 mM Tris-HCL in pH 6.35 at room temperature
Nucleic Acid [3] = test: In vitro relative affinity for binding to d(AAGAATTCTT)2
Nucleic Acid [4] = test: In vitro relative affinity for binding to d(TA AGAATTCTTA)2

Row | Structure (SMILES) | Ka (Nucleic Acid [1]) | Ka (Nucleic Acid [2]) | RA (Nucleic Acid [3]) | RA (Nucleic Acid [4])
1 | COc1ccc2cc3[n+](cc2c1OCCCOc1c(OC)ccc2cc4[n+](cc12)CCc1cc2c(cc1-4)OCO2)CCc1cc2c(cc1-3)OCO2 | 246000 | 2.76e+06 | 19.8 | 94.2
2 | COc1ccc2cc3[n+](cc2c1OCCCCOc1c(OC)ccc2cc4[n+](cc12)CCc1cc2c(cc1-4)OCO2)CCc1cc2c(cc1-3)OCO2 | 87800 | 349000 | 7.1 | 11.9

Next, values leading:

Row | Ka (Nucleic Acid [1]) | Ka (Nucleic Acid [2]) | RA (Nucleic Acid [3]) | RA (Nucleic Acid [4]) | Structure (SMILES)
3 | 34200 | 248000 | 2.8 | 8.5 | COc1ccc2cc3[n+](cc2c1OCCCCCCOc1c(OC)ccc2cc4[n+](cc12)CCc1cc2c(cc1-4)OCO2)CCc1cc2c(cc1-3)OCO2
4 | 57700 | 321000 | 4.7 | 11 | COc1ccc2cc3[n+](cc2c1OCCCCCOc1c(OC)ccc2cc4[n+](cc12)CCc1cc2c(cc1-4)OCO2)CCc1cc2c(cc1-3)OCO2
5 | 12400 | 29300 | 1 | 1 | COc1ccc2cc3[n+](cc2c1OC)CCc1cc2c(cc1-3)OCO2
